Test results: the NIST ThermoML archive (doi:10.1021/je301294a)
± gives the expanded uncertainty stated by the source.

Conditions: Liquid, Closed cell (Static) method

| vapor or sublimation pressure (373.15 K) [kPa] | vapor or sublimation pressure (383.15 K) [kPa] | vapor or sublimation pressure (393.15 K) [kPa] | vapor or sublimation pressure (403.15 K) [kPa] | vapor or sublimation pressure (413.15 K) [kPa] | vapor or sublimation pressure (423.15 K) [kPa] | vapor or sublimation pressure (433.15 K) [kPa] | vapor or sublimation pressure (443.15 K) [kPa] | vapor or sublimation pressure (453.15 K) [kPa] | Compound |
| --- | --- | --- | --- | --- | --- | --- | --- | --- | --- |
| 0.444 ± 0.028 | 0.7516 ± 0.02 | 1.23 ± 0.031 | 1.954 ± 0.044 | 3.017 ± 0.065 | 4.543 ± 0.096 | 6.684 ± 0.14 | 9.627 ± 0.2 | 13.6 ± 0.1 | CCCCCCCCCCCCCC [tetradecane] |
| 0.0326 ± 0.0025 | 0.0623 ± 0.0044 | 0.1143 ± 0.0078 | 0.2019 ± 0.013 | 0.3448 ± 0.022 | 0.5712 ± 0.036 | 0.9198 ± 0.024 | 1.443 ± 0.021 | 2.211 ± 0.025 | CCCCCCCCCCCCCC(=O)OCC [ethyl tetradecanoate] |
| 11.35 ± 0.24 | 16.69 ± 0.14 | 23.94 ± 0.19 | 33.59 ± 0.27 | 46.18 ± 0.37 | 62.32 ± 0.49 | 82.69 ± 0.65 | 108.02 ± 0.85 | 139.11 ± 1.1 | CCCCCC(=O)OCC [ethyl hexanoate] |
| 0.5827 ± 0.036 | 0.9771 ± 0.025 | 1.586 ± 0.021 | 2.498 ± 0.027 | 3.829 ± 0.035 | 5.726 ± 0.048 | 8.371 ± 0.066 | 11.99 ± 0.091 | 16.84 ± 0.12 | CCCCCCCCCC(=O)OCC [ethyl decanoate] |
